The results in this text go back to ChEMBL document CHEMBL1255346 (2008).

In brackets after ≈: the same amount, converted by molar mass.

In test [1] the test system is Klebsiella pneumoniae. Nature of the test: Antibacterial activity against beta-lactamase KPC-2 producing Klebsiella pneumoniae isolate K1 to K9 by agar dilution method. Type of test: functional. On the technique in general: Agar dilution tests growth on a series of plates holding different concentrations.
The subject of test [2] is Escherichia coli. Nature of the test: microbe, parasite or virus in culture. The following applies: isolate E1.
Description: (§1) Antibacterial activity against beta-lactamase KPC-2 producing Escherichia coli isolate E1 by agar dilution method
Test [3] relates to Serratia marcescens. Nature of the test: Antibacterial activity against beta-lactamase KPC-2 producing Serratia marcescens isolate S1 to S21 by agar dilution method.
Test [4] relates to Escherichia coli. Nature of the test: Antibacterial activity against Escherichia coli EC600 by agar dilution method. Type of test: functional.
The subject of test [5] is Klebsiella pneumoniae. Nature of the test: Antibacterial activity against beta-lactamase KPC-2 producing Klebsiella pneumoniae isolate K10 by agar dilution method. It counts as functional.
The subject of test [6] is Escherichia coli. Description: Antibacterial activity against Escherichia coli EC600 transconjugant harboring beta-lactamase KPC-2 by agar dilution method. Type of test: functional.
The subject of test [7] is Escherichia coli. Nature of the test: Antibacterial activity against Escherichia coli EC600 in presence of Sulbactam by agar dilution method. Type of test: functional.
In test [8] the test system is Serratia marcescens. Description: Antibacterial activity against beta-lactamase KPC-2 producing Serratia marcescens isolate S1 to S21 in presence of Sulbactam by agar dilution method. Type of test: functional.
The subject of test [9] is Klebsiella pneumoniae. Nature of the test: Antibacterial activity against beta-lactamase KPC-2 producing Klebsiella pneumoniae isolate K1 to K9 in presence of Sulbactam by agar dilution method. It counts as functional.
For test [10], the system named is Escherichia coli. Description: Antibacterial activity against Escherichia coli EC600 transconjugant harboring beta-lactamase KPC-2 in presence of Sulbactam by agar dilution method.
Test [11] concerns Escherichia coli. Nature of the test: microbe, parasite or virus in culture. The following applies: isolate E1. This is another data set of the same source.
Description: Antibacterial activity against beta-lactamase KPC-2 producing Escherichia coli isolate E1 in presence of Sulbactam by agar dilution method
Test [12] relates to Klebsiella pneumoniae. Nature of the test: Antibacterial activity against beta-lactamase KPC-2 producing Klebsiella pneumoniae isolate K10 in presence of Sulbactam by agar dilution method. Type of test: functional.
The test system of test [13] is Escherichia coli. Nature of the test: Antibacterial activity against Escherichia coli EC600 in presence of Tazobactam by agar dilution method. It counts as functional.
Test [14] relates to Escherichia coli. Nature of the test: Antibacterial activity against beta-lactamase KPC-2 producing Escherichia coli isolate E1 in presence of Tazobactam by agar dilution method. Type of test: functional.
Test [15] concerns Escherichia coli. Description: Antibacterial activity against Escherichia coli EC600 transconjugant harboring beta-lactamase KPC-2 in presence of Tazobactam by agar dilution method. Type of test: functional.
Test [16] has as its system Klebsiella pneumoniae. Description: Antibacterial activity against beta-lactamase KPC-2 producing Klebsiella pneumoniae isolate K10 in presence of Tazobactam by agar dilution method. It counts as functional.
The subject of test [17] is Serratia marcescens. Nature of the test: Antibacterial activity against beta-lactamase KPC-2 producing Serratia marcescens isolate S1 to S21 in presence of Tazobactam by agar dilution method. It counts as functional.
Test [18] has as its system Klebsiella pneumoniae. Nature of the test: Antibacterial activity against beta-lactamase KPC-2 producing Klebsiella pneumoniae isolate K1 to K9 in presence of Tazobactam by agar dilution method. Type of test: functional.
In test [19] the test system is Escherichia coli. The note with it: isolate E1.
Description: as §1

With `C[C@@H](O)[C@H]1C(=O)N2C(C(=O)O)=C(S[C@@H]3CN[C@H](C(=O)Nc4cccc(C(=O)O)c4)C3)[C@H](C)[C@H]12`, the MIC is 8 µg/mL (≈ 16.8 µM) with Klebsiella pneumoniae [1]; 8 µg/mL (≈ 16.8 µM) against Escherichia coli [2]; 4 µg/mL (≈ 8.41 µM) with Serratia marcescens [3]; not above 0.125 µg/mL against Escherichia coli [4]; more than 256 µg/mL against Klebsiella pneumoniae [5]; 4 µg/mL (≈ 8.41 µM) with Escherichia coli [6].
In the case of `CO/N=C(\C(=O)N[C@@H]1C(=O)N2C(C(=O)[O-])=C(C[N+]3(C)CCCC3)CS[C@H]12)c1csc(N)n1`, the MIC was 64 µg/mL (≈ 133 µM) against Escherichia coli [2]; 8 µg/mL (≈ 16.6 µM) against Serratia marcescens [3]; not above 0.125 µg/mL against Escherichia coli [4]; 256 µg/mL (≈ 533 µM) against Klebsiella pneumoniae [5]; 8 µg/mL (≈ 16.6 µM) against Escherichia coli [6].
For the compound `CC1(C)S[C@@H]2[C@H](NC(=O)[C@H](N)c3ccccc3)C(=O)N2[C@H]1C(=O)O` [AMPICILLIN], the MIC is more than 256 µg/mL with Klebsiella pneumoniae [1]; more than 256 µg/mL in the test with Escherichia coli [2]; more than 256 µg/mL against Serratia marcescens [3]; 8 µg/mL (≈ 22.9 µM) against Escherichia coli [4]; more than 256 µg/mL in the test with Klebsiella pneumoniae [5]; more than 256 µg/mL in the test on Escherichia coli [6].
Turning to `C[C@H]1[C@H](NC(=O)/C(=N\OC(C)(C)C(=O)O)c2csc(N)n2)C(=O)N1S(=O)(=O)O` [AZTREONAM], the MIC in the test with Klebsiella pneumoniae [1] was 256 µg/mL (≈ 588 µM); in the test with Escherichia coli [2], 256 µg/mL (≈ 588 µM); in the test on Serratia marcescens [3], 128 µg/mL (≈ 294 µM); with Escherichia coli [4], not above 0.125 µg/mL; with Klebsiella pneumoniae [5], more than 256 µg/mL; in the test on Escherichia coli [6], 128 µg/mL (≈ 294 µM).
For `CCN1CCN(C(=O)N[C@@H](C(=O)N[C@@H]2C(=O)N3C(C(=O)O)=C(CSc4nnnn4C)CS[C@H]23)c2ccc(O)cc2)C(=O)C1=O` [CEFOPERAZONE], the MIC was not above 0.125 µg/mL with Escherichia coli [7]; 32 µg/mL with Serratia marcescens [8]; 128 µg/mL with Klebsiella pneumoniae [9]; 32 µg/mL in the test on Escherichia coli [10]; 128 µg/mL (≈ 198 µM) against Escherichia coli [11]; more than 256 µg/mL in the test on Klebsiella pneumoniae [12].
With `CO/N=C(\C(=O)N[C@@H]1C(=O)N2C(C(=O)O)=C(COC(C)=O)CS[C@H]12)c1csc(N)n1` [CEFOTAXIME], the MIC in the test on Klebsiella pneumoniae [1] was 128 µg/mL (≈ 281 µM); against Escherichia coli [2] it was 256 µg/mL (≈ 562 µM); against Serratia marcescens [3], 16 µg/mL (≈ 35.1 µM); against Escherichia coli [4] it was not above 0.125 µg/mL; in the test on Klebsiella pneumoniae [5] it was 256 µg/mL (≈ 562 µM); against Escherichia coli [6], 8 µg/mL (≈ 17.6 µM).
As to `CO[C@@]1(NC(=O)Cc2cccs2)C(=O)N2C(C(=O)O)=C(COC(N)=O)CS[C@@H]21` [CEFOXITIN], the MIC came out at 8 µg/mL (≈ 18.7 µM) in the test with Klebsiella pneumoniae [1]; 32 µg/mL (≈ 74.9 µM) with Escherichia coli [2]; 16 µg/mL (≈ 37.4 µM) in the test on Serratia marcescens [3]; 8 µg/mL (≈ 18.7 µM) with Escherichia coli [4]; 256 µg/mL (≈ 599 µM) against Klebsiella pneumoniae [5]; 16 µg/mL (≈ 37.4 µM) against Escherichia coli [6].
Turning to `CC(C)(O/N=C(\C(=O)N[C@@H]1C(=O)N2C(C(=O)[O-])=C(C[n+]3ccccc3)CS[C@H]12)c1csc(N)n1)C(=O)O` [CEFTAZIDIME], the MIC in the test on Klebsiella pneumoniae [1] worked out at 64 µg/mL (≈ 117 µM); in the test on Escherichia coli [2], 64 µg/mL (≈ 117 µM); in the test with Serratia marcescens [3] it was 8 µg/mL (≈ 14.6 µM); in the test on Escherichia coli [4], 0.25 µg/mL (≈ 0.457 µM); in the test with Klebsiella pneumoniae [5], 256 µg/mL (≈ 468 µM); against Escherichia coli [6], 16 µg/mL (≈ 29.3 µM).
As for `CO/N=C(\C(=O)N[C@@H]1C(=O)N2C(C(=O)O)=C(CSc3nc(=O)c(O)nn3C)CS[C@H]12)c1csc(N)n1` [CEFTRIAXONE], the MIC was 256 µg/mL (≈ 462 µM) in the test on Klebsiella pneumoniae [1]; more than 256 µg/mL against Escherichia coli [2]; 32 µg/mL (≈ 57.7 µM) against Serratia marcescens [3]; not above 0.125 µg/mL against Escherichia coli [4]; more than 256 µg/mL in the test with Klebsiella pneumoniae [5]; 32 µg/mL (≈ 57.7 µM) against Escherichia coli [6].
In the test with Escherichia coli [2], `O=C(O)c1cn(C2CC2)c2cc(N3CCNCC3)c(F)cc2c1=O` [CIPROFLOXACIN] had an MIC of more than 32 µg/mL.
Take `C[C@@H](O)[C@H]1C(=O)N2C(C(=O)O)=C(SCCNC=N)C[C@H]12` [IMIPENEM ANHYDROUS]: the MIC against Klebsiella pneumoniae [1] is 2 µg/mL (≈ 6.68 µM); with Escherichia coli [2], 2 µg/mL (≈ 6.68 µM); in the test on Serratia marcescens [3], 4 µg/mL (≈ 13.4 µM); with Escherichia coli [4] it was not above 0.125 µg/mL; against Klebsiella pneumoniae [5] it was 128 µg/mL (≈ 428 µM); against Escherichia coli [6] it was 1 µg/mL (≈ 3.34 µM).
In the case of `C[C@@H](O)[C@H]1C(=O)N2C(C(=O)O)=C(S[C@@H]3CN[C@H](C(=O)N(C)C)C3)[C@H](C)[C@H]12` [MEROPENEM], the MIC is 2 µg/mL (≈ 5.22 µM) in the test on Escherichia coli [2]; 2 µg/mL (≈ 5.22 µM) in the test on Serratia marcescens [3]; not above 0.125 µg/mL in the test on Escherichia coli [4]; 256 µg/mL (≈ 668 µM) with Klebsiella pneumoniae [5]; 2 µg/mL (≈ 5.22 µM) in the test with Escherichia coli [6].
In the case of `CCN1CCN(C(=O)N[C@@H](C(=O)N[C@@H]2C(=O)N3[C@@H]2SC(C)(C)[C@@H]3C(=O)O)c2ccccc2)C(=O)C1=O` [PIPERACILLIN], the MIC was 1 µg/mL in the test with Escherichia coli [13]; more than 256 µg/mL in the test on Escherichia coli [2]; 256 µg/mL with Escherichia coli [14]; 256 µg/mL (≈ 495 µM) in the test on Serratia marcescens [3]; 1 µg/mL (≈ 1.93 µM) with Escherichia coli [4]; more than 256 µg/mL against Klebsiella pneumoniae [5]. For the same compound, the MIC with Escherichia coli [6] was 256 µg/mL (≈ 495 µM); with Escherichia coli [15], 256 µg/mL; in the test on Klebsiella pneumoniae [16], more than 256 µg/mL; in the test with Serratia marcescens [17], 128 µg/mL; with Klebsiella pneumoniae [18] it was more than 256 µg/mL.
Turning to GENTAMICIN, the MIC against Klebsiella pneumoniae [1] was more than 256 µg/mL; in the test on Escherichia coli [4], 0.25 µg/mL; against Escherichia coli [19] it was 64 µg/mL; in the test with Klebsiella pneumoniae [5], more than 256 µg/mL; against Escherichia coli [6] it was 0.25 µg/mL.
